Assay results reported in patent publication US8188064B2, “Vitamin D analogs for obesity prevention and treatment” (Wisconsin Alumni Research Foundation, priority 2003, dated 2012).
Entries after “also recorded” stand apart in the source; their conditions may differ.

Legend:
[1] = system: 24-hydroxylase (24Ohase) gene promoter in ROS 17/2.8 (bone) cells; experiment: In vitro transcription assay (luciferase reporter); format: cell-based; details: result in words
Procedure: Transcription activity was measured in ROS 17/2.8 (bone) cells that were stably transfected with a 24-hydroxylase (24Ohase) gene promoter upstream of a luciferase reporter gene (Arbour et al., 1998). Cells were given a range of doses. Sixteen hours after dosing the cells were harvested and luciferase activities were measured using a luminometer. RLU=relative luciferase units.

[2] = Intestinal calcium transport (everted gut sac); format: in vivo; details: result in words; vitamin D deficient rat model, compared to 1α,25(OH)2D3
Procedure: (§1) Male, weanling Sprague-Dawley rats were placed on Diet 11 (0.47% Ca) diet+AEK for one week followed by Diet 11 (0.02% Ca)+AEK for 3 weeks. The rats were then switched to a diet containing 0.47% Ca for one week followed by two weeks on a diet containing 0.02% Ca. Dose administration began during the last week on 0.02% calcium diet. Four consecutive ip doses were given approximately 24 hours apart. Twenty-four hours after the last dose, blood was collected from the severed neck and the concentration of serum calcium determined as a measure of bone calcium mobilization. The first 10 cm of the intestine was also collected for intestinal calcium transport analysis using the everted gut sac method.

[3] = Bone calcium mobilization (serum calcium on low calcium diet); format: in vivo, rat; details: result in words; vitamin D deficient rat model, compared to 1α,25(OH)2D3
Procedure: as §1

[4] = system: SCD-1 mRNA; experiment: Inhibition of SCD-1 mRNA induction in 3T3-L1 cells (RT-PCR); format: cell-based, murine; details: for inhibition of SCD-1 mRNA induction: result in words, MDI-treated 3T3-L1 cells; for inhibition of SCD1 mRNA induction: tested at 1×10^−8.5 M
From the text: Chomczynski, P. et al., Anal. […] NO: 4)).

[5] = system: 3T3-L1 cells; experiment: Inhibition of 3T3-L1 differentiation into mature adipocytes (Oil-Red-O staining); format: cell-based, murine; details: for inhibition of differentiation of 3T3-L1 cells into mature adipocytes (Oil-Red-O staining): result in words, MDI-treated cells, staining at day 10; for inhibition of differentiation of MDI-treated 3T3-L1 cells (oil-red-O staining): tested at 1×10^−8.5 M
Procedure: Various 19-nor vitamin D analogs were or are tested and found to inhibit the differentiation of preadipocytes into mature adipocytes, to reduce body fat, to inhibit an increase in PPARγ, C/EBPα, and/or SCD-1 gene transcription and to be useful in treating and preventing obesity both in vivo and in vitro. The undifferentiated preadipocyte 3T3-L1 subline, a derivative of the original mouse fibroblast cell line, is one of the most accepted models for investigating the adipogenesis process and was used for the analysis. Two days after reaching confluence, 3T3-L1 cells can be induced to differentiate into adipocytes (see Mackall, J. C. et al. J. Biol. Chem., 251(20), 6462-6464 (1976)) with the addition of a cAMP phosphodiesterase inhibitor, dexamethasone (a glucocortoid), and insulin. […] The induction of PPARγ and C/EBPα is required for adipocyte differentiation. […] SCD-1 is an enzyme found in adipocytes that converts saturated fatty acids (C16 and C18) to their monounsaturated forms (C16:1 and C18:1). The deposition of triglyceride can also be detected as early as 3 days, and by the 7th to 14th days post-confluence, greater than 80% of the cells in the monolayer stain positively with Oil-red-O.

[6] = system: Human promyelocytic leukemia (HL60) cells; experiment: HL-60 differentiation (nitro blue tetrazolium reduction); format: cell-based; details: for cells induced to differentiate in the NBT assay: concentration 1×10^−7 M; for differentiation of HL-60 cells, compared to 1α,25(OH)2D3: result in words
Procedure: The study drugs were dissolved in ethanol and the concentrations determined using UV spectrophotometry. Serial dilutions were prepared so that a range of drug concentrations could be tested without changing the final concentration of ethanol (≦0.2%) present in the cell cultures.
Human promyelocytic leukemia (HL60) cells were grown in RPMI-1640 medium containing 10% fetal bovine serum. The cells were incubated at 37° C. in the presence of 5% CO2.
HL60 cells were plated at 1.2×10^5 cells/ml. Eighteen hours after plating, cells in duplicate were treated with drug. Four days later, the cells were harvested and a nitro blue tetrazolium reduction assay was performed (Collins et al., 1979; J. Exp. Med. 149:969-974). The percentage of differentiated cells was determined by counting a total of 200 cells and recording the number that contained intracellular black-blue formazan deposits. Verification of differentiation to monocytic cells was determined by measuring phagocytic activity (data not shown).

[7] = biological target: T1, full-length recombinant rat vitamin D receptor (Rattus norvegicus, UniProt P13053); experiment: Vitamin D receptor binding (competition with 3H-1,25(OH)2D3); details: result in words, competition for tritiated hormone binding
T1 construct: Full-length recombinant rat receptor was expressed in E. coli; histidine tag (C); made in house; host or cells: E. coli BL21(DE3) Codon Plus RIL
T1 sequence (P13053 1-423): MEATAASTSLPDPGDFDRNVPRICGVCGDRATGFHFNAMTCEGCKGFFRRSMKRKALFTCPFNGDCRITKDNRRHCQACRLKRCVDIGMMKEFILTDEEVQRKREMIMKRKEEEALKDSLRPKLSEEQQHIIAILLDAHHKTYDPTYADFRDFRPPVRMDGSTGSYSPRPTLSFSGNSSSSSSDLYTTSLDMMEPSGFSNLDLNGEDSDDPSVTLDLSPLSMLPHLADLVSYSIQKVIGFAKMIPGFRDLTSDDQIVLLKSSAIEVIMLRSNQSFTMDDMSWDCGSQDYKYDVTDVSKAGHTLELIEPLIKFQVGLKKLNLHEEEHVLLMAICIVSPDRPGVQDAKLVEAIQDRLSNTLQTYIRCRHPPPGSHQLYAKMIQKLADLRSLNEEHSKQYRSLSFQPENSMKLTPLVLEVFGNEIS
Procedure: Full-length recombinant rat receptor was expressed in E. coli BL21(DE3) Codon Plus RIL cells and purified to homogeneity using two different column chromatography systems. The first system was a nickel affinity resin that utilizes the C-terminal histidine tag on this protein. The protein that was eluted from this resin was further purified using ion exchange chromatography (S-Sepharose Fast Flow). Aliquots of the purified protein were quick frozen in liquid nitrogen and stored at −80° C. until use. For use in binding assays, the protein was diluted in TEDK50 (50 mM Tris, 1.5 mM EDTA, pH 7.4, 5 mM DTT, 150 mM KCl) with 0.1% Chaps detergent. The receptor protein and ligand concentration was optimized such that no more than 20% of the added radiolabeled ligand was bound to the receptor.
Unlabeled ligands were dissolved in ethanol and the concentrations determined using UV spectrophotometry (1,25(OH)2D3: molar extinction coefficient=18,200 and λmax=265 nm; Analogs: molar extinction coefficient=42,000 and λmax=252 nm). Radiolabeled ligand (^3H-1,25(OH)2D3, ˜159 Ci/mmole) was added in ethanol at a final concentration of 1 nM.
Radiolabeled and unlabeled ligands were added to 100 mcl of the diluted protein at a final ethanol concentration of ≦10%, mixed and incubated overnight on ice to reach binding equilibrium. The following day, 100 mcl of hydroxylapatite slurry (50%) was added to each tube and mixed at 10-minute intervals for 30 minutes. The hydroxylapaptite was collected by centrifugation and then washed three times with Tris-EDTA buffer (50 mM Tris, 1.5 mM EDTA, pH 7.4) containing 0.5% Titron X-100. After the final wash, the pellets were transferred to scintillation vials containing 4 ml of Biosafe II scintillation cocktail, mixed and placed in a scintillation counter. Total binding was determined from the tubes containing only radiolabeled ligand.

[8] = Hypercalcemia / serum calcium analysis; format: in vivo, rat; details: normal vitamin D sufficient rats, very high oral doses

binding to the vitamin D receptor, compared to 1α,25(OH)2D3 ([7]; listed as AGR)	binding to the vitamin D receptor, compared to 1α,25(OH)2D3 ([7]; listed as AGS)	SMILES	transcriptional activity in bone cells, compared to 1α,25(OH)2D3 [1]	intestinal calcium transport activity [2]	bone calcium mobilization activity [3]	inhibition of SCD-1 mRNA induction [4]	inhibition of differentiation of 3T3-L1 cells into mature adipocytes (Oil-Red-O staining) [5]	cells induced to differentiate in the NBT assay [6]	differentiation of HL-60 cells, compared to 1α,25(OH)2D3 [6]	binding to the vitamin D receptor, compared to 1α,25(OH)2D3 [7]	fold more active than the native hormone 1α,25-(OH)2D3 in inhibition of adipocyte differentiation ([5]; Oil-Red-O staining)	inhibition of SCD-1 mRNA induction ([4]; listed as 2MP)	inhibition of SCD1 mRNA induction [4]	inhibition of differentiation of 3T3-L1 cells into mature adipocytes (Oil-Red-O staining) ([5]; listed as 2MP)	inhibition of differentiation of MDI-treated 3T3-L1 cells (oil-red-O staining) [5]	increase in serum calcium [8]	inhibition of differentiation of 3T3-L1 cells into mature adipocytes (Oil-Red-O staining) ([5]; listed as LAGS)
		COCOCCC=C1C(O)CC(=CC=C2CCCC3(C)C2CCC3C(C)CCCC(C)(C)O)CC1O (centres unmarked) [F-Wit]	significant transcriptional activity	relatively high intestinal calcium transport activity; also recorded: active	significant ability to mobilize calcium from bone; also recorded: active	active	also active	same degree of differentiation	as potent as	very active; also recorded: less than five times less potent							
less than five times less potent		CC(CCCC(C)(C)O)C1CCC2C(=CC=C3CC(O)C(=CCCO)C(O)C3)CCCC21C (centres unmarked) [1AGR]	significant transcriptional activity	relatively high intestinal calcium transport activity; also recorded: active	significant ability to mobilize calcium from bone; also recorded: active	nearly equipotent; also recorded: active	nearly equipotent; also recorded: so much greater; also recorded: active	same degree of differentiation	as potent as	very active							
		C=C1[C@H](O)CC(=C/C=C2\CCC[C@@H]3[C@@H]([C@@H](C)CCCC(C)(C)O)CC[C@@H]23)C[C@H]1O [VD-03]	higher transcriptional activity	about as active as; also recorded: approximately the same activity	relatively low ability	active	active		high potency	very active; also recorded: as well as the native hormone	approximately 10 fold						
		C=C1[C@H](O)CC(=C/C=C2\CCC[C@]3(C)[C@@H](C(C)C)CC[C@@H]23)C[C@H]1O [2-MP]		little, if any, activity	little, if any, activity	nearly as potent as the native hormone	nearly as potent as the native hormone			as or nearly effective as calcitriol		still active	active	still active	active	without producing an increase in serum calcium	
	less than five times less potent	CC(CCCC(C)(C)O)C1CCC2C(=CC=C3CC(O)C(=CCCO)C(O)C3)CCCC21C (centres unmarked) [1AGS]	significant transcriptional activity	relatively high intestinal calcium transport activity; also recorded: active	significant ability to mobilize calcium from bone; also recorded: active	nearly equipotent; also recorded: active	nearly equipotent; also recorded: highest activity; also recorded: so much greater; also recorded: active	same degree of differentiation	as potent as	very active							slightly more active
		C=C1[C@H](O)CC(=C/C=C2\CCC[C@]3(C)C(=C(C)C)CC[C@@H]23)C[C@H]1O [VIT-I]	about the same transcriptional activity	very little activity; also recorded: less activity	very little bone calcium mobilization activity		has activity		almost as potent	bound equally well; also recorded: as well as the native hormone			active		active		
